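Assay format: 96-well plates, 48-hour exposure. TGI denotes the concentration required for complete inhibition of growth.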
Tests used:
Test in all cases: DTP human tumour cell line panel, 48 h
786-0 renal = system: 786-0 renal
A498 renal = system: A498 renal
ACHN renal = system: ACHN renal
CAKI-1 renal = system: CAKI-1 renal
CCRF-CEM leukemia = system: CCRF-CEM leukemia
DU-145 prostate = system: DU-145 prostate
EKVX NSCLC = system: EKVX NSCLC
HCC-2998 colon = system: HCC-2998 colon
HCT-116 colon = system: HCT-116 colon
HCT-15 colon = system: HCT-15 colon
HL-60(TB) leukemia = system: HL-60(TB) leukemia
HOP-62 NSCLC = system: HOP-62 NSCLC
HOP-92 NSCLC = system: HOP-92 NSCLC
HS 578T breast = system: HS 578T breast
HT29 colon = system: HT29 colon
IGROV1 ovarian = system: IGROV1 ovarian
K-562 leukemia = system: K-562 leukemia
KM12 colon = system: KM12 colon
LOX IMVI melanoma = system: LOX IMVI melanoma
M14 melanoma = system: M14 melanoma
MCF7 breast = system: MCF7 breast
MDA-MB-231 breast = system: MDA-MB-231 breast
MDA-MB-435 = system: MDA-MB-435
MDA-N = system: MDA-N
MOLT-4 leukemia = system: MOLT-4 leukemia
NCI-H226 lung = system: NCI-H226 lung
NCI-H23 lung = system: NCI-H23 lung
NCI-H460 lung = system: NCI-H460 lung
NCI-H522 lung = system: NCI-H522 lung
NCI/ADR-RES ovarian = system: NCI/ADR-RES ovarian
OVCAR-3 ovarian = system: OVCAR-3 ovarian
OVCAR-4 ovarian = system: OVCAR-4 ovarian
OVCAR-5 ovarian = system: OVCAR-5 ovarian
OVCAR-8 ovarian = system: OVCAR-8 ovarian
PC-3 prostate = system: PC-3 prostate
RPMI-8226 leukemia = system: RPMI-8226 leukemia
RXF 393 renal = system: RXF 393 renal
SF-268 CNS = system: SF-268 CNS
SF-295 CNS = system: SF-295 CNS
SF-539 CNS = system: SF-539 CNS
SK-MEL-2 melanoma = system: SK-MEL-2 melanoma
SK-MEL-28 melanoma = system: SK-MEL-28 melanoma
SK-MEL-5 melanoma = system: SK-MEL-5 melanoma
SK-OV-3 ovarian = system: SK-OV-3 ovarian
SR leukemia = system: SR leukemia
SW-620 colon = system: SW-620 colon
T-47D breast = system: T-47D breast
TK-10 renal = system: TK-10 renal
U251 CNS = system: U251 CNS
UACC-257 melanoma = system: UACC-257 melanoma
UO-31 renal = system: UO-31 renal
A549 NSCLC = system: A549 NSCLC
COLO 205 colon = system: COLO 205 colon
MALME-3M melanoma = system: MALME-3M melanoma
SN12C renal = system: SN12C renal
SNB-75 CNS = system: SNB-75 CNS
UACC-62 melanoma = system: UACC-62 melanoma

In the case of `O=[N+]([O-])c1ccc(/C=N/n2c(CCc3n[nH]c(=S)n3/N=C/c3ccc([N+](=O)[O-])o3)n[nH]c2=S)o1`, the TGI (786-0 renal) is reported as 31.9 µM, the TGI (A498 renal) is reported as > 100 µM and the TGI (ACHN renal) is reported as 63.4 µM. It also gave a TGI (CAKI-1 renal) of 44.8 µM, a TGI (CCRF-CEM leukemia) of 67.7 µM and a TGI (DU-145 prostate) of 29.7 µM. For the same compound, the TGI (EKVX NSCLC) was > 100 µM, the TGI (HCC-2998 colon) was 33 µM and the TGI (HCT-116 colon) was 29 µM. The TGI (HCT-15 colon) was 32.7 µM, the TGI (HL-60(TB) leukemia) was 97.7 µM and the TGI (HOP-62 NSCLC) was 69.8 µM. It also gave a TGI (HOP-92 NSCLC) of 33.6 µM, a TGI (HS 578T breast) of 62.2 µM and a TGI (HT29 colon) of 86.4 µM. The TGI (IGROV1 ovarian) was > 100 µM, the TGI (K-562 leukemia) was > 100 µM and the TGI (KM12 colon) was 64.4 µM. The TGI (LOX IMVI melanoma) was 50.6 µM, the TGI (M14 melanoma) was 36.1 µM and the TGI (MCF7 breast) was 39.7 µM. For the same compound, the TGI (MDA-MB-231 breast) was 52.4 µM, the TGI (MDA-MB-435) was 35.3 µM and the TGI (MDA-N) was 26.7 µM. The TGI (MOLT-4 leukemia) was 63.9 µM, the TGI (NCI-H226 lung) was > 100 µM and the TGI (NCI-H23 lung) was 34.7 µM. For the same compound, the TGI (NCI-H460 lung) was > 100 µM, the TGI (NCI-H522 lung) was 47.3 µM and the TGI (NCI/ADR-RES ovarian) was 88.7 µM. For the same compound, the TGI (OVCAR-3 ovarian) was 54.2 µM, the TGI (OVCAR-4 ovarian) was 36.7 µM and the TGI (OVCAR-5 ovarian) was > 100 µM. For the same compound, the TGI (OVCAR-8 ovarian) was > 100 µM, the TGI (PC-3 prostate) was > 100 µM and the TGI (RPMI-8226 leukemia) was > 100 µM. The TGI (RXF 393 renal) was 32.1 µM, the TGI (SF-268 CNS) was 50.7 µM and the TGI (SF-295 CNS) was > 100 µM. The TGI (SF-539 CNS) was > 100 µM, the TGI (SK-MEL-2 melanoma) was 42.9 µM and the TGI (SK-MEL-28 melanoma) was 31.5 µM. The TGI (SK-MEL-5 melanoma) was 33.3 µM, the TGI (SK-OV-3 ovarian) was > 100 µM and the TGI (SR leukemia) was 80.7 µM. The TGI (SW-620 colon) was 32.7 µM, the TGI (T-47D breast) was 62.8 µM and the TGI (TK-10 renal) was > 100 µM. For the same compound, the TGI (U251 CNS) was 50 µM, the TGI (UACC-257 melanoma) was 83.8 µM and the TGI (UO-31 renal) was 89.9 µM.
In the case of `c1csc(-c2sc(-c3ccsc3)cc2Cc2ccsc2)c1`, the TGI (786-0 renal) is reported as > 10 µM, the TGI (A549 NSCLC) is reported as > 10 µM and the TGI (CAKI-1 renal) is reported as > 10 µM. The TGI (CCRF-CEM leukemia) was > 10 µM, the TGI (COLO 205 colon) was > 10 µM and the TGI (DU-145 prostate) was > 10 µM. For the same compound, the TGI (EKVX NSCLC) was > 10 µM, the TGI (HCC-2998 colon) was > 10 µM and the TGI (HCT-15 colon) was > 10 µM. For the same compound, the TGI (HL-60(TB) leukemia) was > 10 µM, the TGI (HOP-62 NSCLC) was > 10 µM and the TGI (HOP-92 NSCLC) was > 10 µM. The TGI (HT29 colon) was > 10 µM, the TGI (IGROV1 ovarian) was > 10 µM and the TGI (K-562 leukemia) was > 10 µM. The TGI (KM12 colon) was > 10 µM, the TGI (LOX IMVI melanoma) was > 10 µM and the TGI (M14 melanoma) was > 10 µM. The TGI (MALME-3M melanoma) was > 10 µM, the TGI (MCF7 breast) was > 10 µM and the TGI (MDA-MB-231 breast) was > 10 µM. For the same compound, the TGI (MDA-MB-435) was > 10 µM, the TGI (MDA-N) was > 10 µM and the TGI (MOLT-4 leukemia) was > 10 µM. For the same compound, the TGI (NCI-H23 lung) was > 10 µM, the TGI (OVCAR-4 ovarian) was > 10 µM and the TGI (OVCAR-8 ovarian) was > 10 µM. For the same compound, the TGI (PC-3 prostate) was > 10 µM, the TGI (RPMI-8226 leukemia) was > 10 µM and the TGI (RXF 393 renal) was > 10 µM. For the same compound, the TGI (SF-268 CNS) was > 10 µM, the TGI (SF-295 CNS) was > 10 µM and the TGI (SK-MEL-28 melanoma) was > 10 µM. For the same compound, the TGI (SK-MEL-5 melanoma) was > 10 µM, the TGI (SK-OV-3 ovarian) was > 10 µM and the TGI (SN12C renal) was > 10 µM. The TGI (SNB-75 CNS) was > 10 µM, the TGI (SR leukemia) was > 10 µM and the TGI (SW-620 colon) was > 10 µM. The TGI (T-47D breast) was > 10 µM, the TGI (TK-10 renal) was > 10 µM and the TGI (UACC-257 melanoma) was > 10 µM. For the same compound, the TGI (UACC-62 melanoma) was > 10 µM.

From PubChem BioAssay (NCI)
